According to US9808470B2, “Estrogenic components for use in the treatment of neurological disorders” (UNIVERSITE DE LIEGE, priority 2012, dated 2017):

Key:
Type in all cases: in vivo
doublecortin (DCX) = assay: Ex.4 therapeutic HIE rat model: doublecortin staining
Procedure: The sections were heated in 10 mmol/L citrate buffer (pH 6.0) at 100° C. for 10 minutes. Endogenous peroxidase activity was blocked with 3% hydrogen peroxide for 10 minutes and after a second blocking with 5% normal goat serum, the sections were incubated with anti-doublecortin (DCX) antibody, diluted 1:1000 (rabbit polyclonal antibody; Abcam, Cambridge, UK) and anti-vascular endothelial growth factor (VEGF) antibody, diluted 1:100 (mouse monoclonal antibody; Abcam, Cambridge, UK) overnight at 4° C. After rinsing, Alexa Fluor® goat anti-rabbit, diluted 1:1000 and Alexa Fluor® goat anti-mouse, diluted 1:1000 (Invitrogen Inc., Ghent, Belgium) were added and sections were incubated 1 h at room temperature. Mounting medium containing 4′,6-diamidino-2-phenylindole (DAPI) for fluorescent studies was used (Vector Laboratories). Samples were analyzed with the aid of a microscope (Olympus Vanox AHBT3, Olympus), and the ImageJ software (NIH). The percentage of positively stained cells was quantified as a sum of positively stained either DCX or VEGF cells divided by the total number of DAPI positive cells expressed in percentage.
(§1) To study the therapeutic effect of estetrol, newborn rat pups were assigned to one of the following 6 groups at postnatal day 7: sham group (n=29), vehicle group (n=20), 1 mg/kg E4 group (n=16), 5 mg/kg E4 group (n=19), 10 mg/kg day E4 (n=17) and 50 mg/kg day E4 group (n=15). At postnatal day 7 animals were anesthetized with isoflurane (induction, 3.0%; maintenance, 1.5%), and the rat pups from vehicle and E4 groups passed through surgery encompassing left common carotid artery double ligation and cut. After surgery, the pups were returned to their dams and allowed to recover for 1 hour. The pups were then placed in a humidified hypoxic in vivo cabinet (CoyLab). Hypoxia was produced by the inhalation of 11%-8% of oxygen balanced by nitrogen at decreased concentration of oxygen for 20 minutes, followed by inhalation of 8% oxygen and 92% nitrogen at constant concentration for 35 minutes. All the manipulations were performed at 37° C.
Upon retrieval from the hypoxia chamber the rat pups were injected intraperitoneally either by vehicle (vehicle group) or by E4 (1 mg/kg, 5 mg/kg, 10 mg/kg or 50 mg/kg) in accordance to the group assignment. The animals from the sham group went through similar procedures but proceeded neither left common carotid artery ligation and cut followed by hypoxia nor vehicle or estetrol administration. Rat pups recovered with their dams until being sacrificed at postnatal day 14.

[1] = test system: Myelin Basic Protein (MBP); assay: Ex.7 neuroprotective HIE rat model: myelin basic protein staining; settings: vs vehicle
Text: FIG. 21. Myelin Basic Protein (MBP) staining of brain coronal sections in rat pups that were pre-treated with estetrol. Brains were removed upon sacrifice at postnatal day 14 and paraformaldehyde-fixed and paraffin-embedded brain samples were coronally sectioned at the hippocampus region. The sections were processed for detection of white matter damage through immunohistological staining with anti-MBP antibody. (A-F) MBP staining of brain coronal sections (scale bar: 2 mm) is shown. (G-L) MBP staining of cingulum of the left hemisphere is (scale bar: 2 mm) shown. (M) The ratio of the MBP positive areas OD ratio was calculated as the MBP positive area OD of the ipsilateral hemisphere divided by the MBP positive area OD of the contralateral hemisphere. 10 samples from each study group were analyzed. The ratio of the MBP positive area OD in the Sham group was considered by default as 1.0.
The sections were processed for immunohistochemical detection of neuronal myelin basic protein disruption. For antigen retrieval, the sections were heated in 10 mmol/L citrate buffer (pH 6.0) at 100° C. for 10 min. […] 10 samples from each study group of both study designs were analyzed with the aid of an image scanner (Nanozoomer Virtual Microscopy, Hamamatsu, Tokyo, Japan) and ImageJ software (NIH, USA). The MBP positive areas optical densities in the ipsilateral and contralateral hemispheres were measured. […]

[2] = test system: glial fibrillary acidic protein (GFAP); assay: Ex.4 therapeutic HIE rat model: blood serum GFAP ELISA; settings: estetrol treated animals (1, 5, 10, 50 mg/kg single ip dose after HI); PND14; vs vehicle
Procedure: Blood was withdrawn, centrifuged and the serum samples were stored at −80° C.
ELISAs for detecting the brain damage markers S100B protein (Catalog# CSB-E08066r, Cusabio Biotech Co., LTD, China), and glial fibrillary acidic protein (GFAP) (Catalog# E90068Ra, Uscn Life sciences Inc., China) in blood serum samples were performed according to the manufacturers' recommendations.
as §1, with “C. […]” for “C.”

## C[C@]12CC[C@@H]3c4ccc(O)cc4CC[C@H]3[C@@H]1[C@@H](O)[C@@H](O)[C@@H]2O [E4, 1,3,5(10)-estratrien-3,15α,16α,17β-tetrol]
Doublecortin (DCX); 5 mg/kg E4 single ip dose after HI, cortex
  percentage of DCX positively stained cells: 45.2±3.339%
Doublecortin (DCX); 10 mg/kg E4 single ip dose after HI, CA1
  percentage of DCX positively stained cells: 37.1±3.84
Doublecortin (DCX); 10 mg/kg E4 single ip dose after HI, CA2/CA3
  percentage of DCX positively stained cells: 42.5±5.986%
Doublecortin (DCX); 10 mg/kg E4 single ip dose after HI, cortex
  percentage of DCX positively stained cells: 49.4±4.949%
Doublecortin (DCX); 50 mg/kg E4 single ip dose after HI, CA1
  percentage of DCX positively stained cells: 37.3±4.784%
Doublecortin (DCX); 50 mg/kg E4 single ip dose after HI, cortex
  percentage of DCX positively stained cells: 49.6±3.11%
Doublecortin (DCX); E4 1, 5, 10, 50 mg/kg single ip dose after HI, DG, among study groups
  DCX staining: neither DCX nor VEGF staining was significantly different
[1]; 5 mg/kg/day E4 pre-treated
  ratio of the MBP-positive area OD: significantly higher
[1]; 50 mg/kg/day E4 pre-treated
  ratio of the MBP-positive area OD: significantly higher
[2]
  expression of GFAP protein in blood serum: significantly lower expression
